The source of these data is PubChem BioAssay (NCI).

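Exposure lasted 48 hours, with cells grown in 96-well plates and compounds tested at five concentrations. The concentration for full growth arrest is given as TGI.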

Common to all, as to assay: NCI-60 cell line screen, 48 h
The subject of test [1] is HCC-2998 colon.
In test [2] the test system is HCT-116 colon.
Test [3] relates to NCI-H23 lung.
Test [4] deals with OVCAR-5 ovarian.
Test [5] deals with SF-295 CNS.
The subject of test [6] is UACC-62 melanoma.
Test [7] relates to SF-539 CNS.
The subject of test [8] is SN12C renal.
Test [9] has as its system EKVX NSCLC.
In test [10] the test system is SNB-75 CNS.
Test [11] deals with COLO 205 colon.
In test [12] the test system is NCI/ADR-RES ovarian.
The subject of test [13] is OVCAR-4 ovarian.
Test [14] deals with NCI-H460 lung.
In test [15] the test system is A549 NSCLC.
The subject of test [16] is UO-31 renal.
Test [17] relates to MDA-MB-435.
The subject of test [18] is PC-3 prostate.
Test [19] deals with K-562 leukemia.
Test [20] relates to M14 melanoma.

In the case of `COC1(OC)CCCc2c1no[n+]2[O-]`, the TGI in test [1], in test [2], in test [3], in test [4], in test [5] and in [6] was over 100 µM each time. Besides, the TGI in [7], in test [8], in test [9], in [10], in test [11] and in test [12] was over 100 µM throughout. The TGI in test [13], in test [14], in test [15], in test [16], in [17] and in test [18] was over 100 µM in each case. Further, the TGI in [19] and in test [20] was over 100 µM each time.

As for `CC(C)(C)OC/C=C(/CO)[C@@H]1C=C[C@H](O)C1`, the TGI in test [1], in test [2], in test [3], in [4], in test [5] and in test [6] was over 100 µM in each case. Further, the TGI in test [7], in test [8], in test [9], in test [10], in test [11] and in test [12] was over 100 µM each time. In addition, the TGI in test [13], in test [14], in test [15], in [16], in test [17] and in test [18] was over 100 µM in each case. Further, the TGI in test [19] and in [20] was over 100 µM each time.

With `COC(=O)/C=C\C(C#N)(C#N)N=Cc1cc(Br)cs1`, the TGI amounted to 30.8 µM in [1]; 3.72 µM in test [2]; 13.5 µM in [3]; 20.8 µM in [4]; 31.8 µM in test [5]; 33 µM in test [6]. Besides, the TGI worked out at 11 µM in [7]; 7.64 µM in test [8]; 18.7 µM in [9]; 29.7 µM in [10]; 3.99 µM in test [11]; 36.3 µM in test [12]. In addition, the TGI in [13] amounted to 27.1 µM; in test [14], 40.7 µM; in test [15] it was 32.4 µM; in test [16], 5.01 µM; in [17], 8.34 µM; in test [18], 16 µM. Also, the TGI was over 100 µM in test [19] and 6.48 µM in test [20].

On to `CC(C)C(C/C=C1\CC(CO)(COC(=O)C(C)(C)C)OC1=O)C(C)C` (stereo not given), for which the TGI amounted to 24.8 µM in [1]; 22.7 µM in test [2]; 19.7 µM in test [3]; 25.4 µM in test [4]; 18.1 µM in test [5]; 31.3 µM in test [6]. The TGI in [7] worked out at 20.9 µM; in [8], 19.8 µM; in test [9], 24.8 µM; in test [10], 15.2 µM; in test [11], 11.4 µM; in [12], 32.4 µM. For the same compound, the TGI in test [13] was 31.9 µM; in [14], 31 µM; in test [15], 16.6 µM; in [16], 18.3 µM; in test [17], 25.3 µM; in test [18], 20.9 µM. For the same compound, the TGI in test [19] is 44.9 µM; in test [20] it was 29.8 µM.

For the compound `O=C(NNC(=O)c1ccccc1O)c1cccc(Br)c1`, the TGI in test [1], in test [2], in [3], in [4], in test [5] and in test [6] was over 100 µM in each case. In addition, the TGI in test [7], in test [8], in [9], in test [10], in [11] and in test [12] was over 100 µM each time. The TGI in test [13], in test [14], in test [15], in test [16], in test [17] and in test [18] was over 100 µM in each case. Also, the TGI in test [19] and in test [20] was over 100 µM each time.

On to `O=C(O)CCSC(CC1(c2ccc(Cl)cc2)NC(=O)CCS1)c1ccccc1` (stereo not given), for which the TGI in [1] is 39.6 µM; in [2], 17.4 µM; in [3], 50.1 µM; in test [4] it was 37 µM; in test [5], 43.2 µM; in test [6], 39.7 µM. Moreover, the TGI is 27.3 µM in [7]; 33.4 µM in [8]; 46.9 µM in test [9]; 32.3 µM in test [10]; over 60.6 µM in test [11]; 49.3 µM in test [12]. In addition, the TGI in test [13] is 29.3 µM; in test [14], 64.7 µM; in test [15], over 63.1 µM; in test [16], over 54.8 µM; in [17], 29.8 µM; in test [18], 37.3 µM. Besides, the TGI is over 100 µM in [19] and 50.9 µM in test [20].

On to `COCOC1C=CCCCC2=CC(C)=C(CC1)O2` (stereo not given), for which the TGI in test [1], in test [2], in test [3], in test [4], in [5] and in test [6] was over 100 µM each time. Moreover, the TGI in test [7], in test [8], in [9], in test [10], in test [11] and in test [12] was over 100 µM in each case. In addition, the TGI in test [13], in [14], in [15], in [16], in test [17] and in [18] was over 100 µM each time. For the same compound, the TGI in [19] and in test [20] was over 100 µM throughout.

For `CCOC(=O)/C=C(/C(=O)OCC)n1cnc2c(=O)[nH]c(NC(C)=O)nc21`, the TGI in test [1], in test [2], in test [3], in test [4], in test [5] and in test [6] was over 100 µM each time. For the same compound, the TGI in [7], in test [8], in [9], in test [10], in test [11] and in [12] was over 100 µM each time. Moreover, the TGI in test [13], in [14], in test [15], in test [16], in test [17] and in test [18] was over 100 µM each time. The TGI in test [19] and in [20] was over 100 µM throughout.

As for `COc1cccc(C2c3cc4c(cc3OC(C)(N3CCCC3)C2C)OCO4)c1` (stereo not given), the TGI came out at 32.8 µM in [1]; 26.6 µM in [2]; 71.1 µM in test [3]; 47.5 µM in test [4]; 73.9 µM in test [5]; 23.6 µM in [6]. Moreover, the TGI in test [7] is 37.2 µM; in test [8] it was 48.6 µM; in test [9], 92.1 µM; in [10], 26.5 µM; in test [11], 23.6 µM; in [12], 40.2 µM. Also, the TGI in test [13] amounted to 75 µM; in [14], 26.4 µM; in test [15] it was 32.1 µM; in test [16], 39.9 µM; in test [17] it was 32.9 µM; in [18], 62.2 µM. Further, the TGI in test [19] was over 100 µM; in test [20] it was 13.9 µM.

Regarding `COc1ccc(N=NC(=O)NC(CC(C)C)C(=O)NC(C)C(=O)O)cc1` (stereo not given), the TGI in test [1], in test [2], in test [3], in test [4], in [5] and in test [6] was over 100 µM throughout. Besides, the TGI in [7] is 14.4 µM; in test [8] it was over 100 µM; in [9], over 100 µM; in test [10], over 100 µM; in test [11], 16.3 µM; in [12] it was over 100 µM. The TGI in test [13] was over 100 µM; in test [14], over 89 µM; in test [15] it was over 51.2 µM; in test [16] it was over 26.6 µM; in test [17] it was over 100 µM; in [18], over 100 µM. Also, the TGI was over 38.4 µM in test [19] and over 100 µM in test [20].

Regarding `C=CCN(C(=O)CNC(=O)C(F)(F)F)c1cc(OCc2ccccc2)c2c(c1)c(C)cn2S(=O)(=O)c1ccccc1`, the TGI in test [1], in test [2], in [3], in test [4], in test [5] and in test [6] was over 100 µM in each case. Besides, the TGI in test [7] was over 100 µM; in [8], over 100 µM; in [9], over 100 µM; in test [10], over 76.2 µM; in test [11], over 100 µM; in [12], over 100 µM. Also, the TGI in test [13] is over 100 µM; in test [14], over 100 µM; in [15] it was over 100 µM; in [16], 15.6 µM; in [17], over 100 µM; in test [18] it was over 100 µM. Moreover, the TGI in test [19] and in [20] was over 100 µM each time.

On to `Cn1c2ccccc2c(=O)c2cccc(C(=O)NC(CS)C(=O)O)c21` (stereo not given), for which the TGI in [1], in test [2], in [3], in test [4], in test [5] and in [6] was over 100 µM throughout. The TGI in [7], in test [8], in test [9], in test [10], in test [11] and in test [12] was over 100 µM each time. The TGI in test [13], in [14], in [15], in test [16], in [17] and in [18] was over 100 µM each time. In addition, the TGI in [19] and in test [20] was over 100 µM throughout.

Regarding `CC1(C)OC[C@@H]([C@H](O)C2C=CC(=O)S2)O1` (stereo not given in full), the TGI in test [1] is 33.5 µM; in [2], 27.3 µM; in [3] it was 78.5 µM; in test [4], over 100 µM; in [5] it was over 100 µM; in test [6] it was 35.9 µM. In addition, the TGI in test [7] is over 100 µM; in test [8], over 100 µM; in [9], over 100 µM; in [10], over 100 µM; in test [11], 40.5 µM; in test [12] it was 83.6 µM. In addition, the TGI was over 100 µM in test [13]; over 100 µM in [14]; over 100 µM in test [15]; 50 µM in test [16]; over 100 µM in [17]; over 100 µM in [18]. For the same compound, the TGI in [19] and in test [20] was over 100 µM each time.

Take `CCOC(=O)C(CCN1CCC2(CC1)C(=O)N(C)CN2c1ccccc1)C(=O)OCC`: the TGI in test [1], in test [2], in test [3], in test [4], in [5] and in test [6] was over 100 µM each time. For the same compound, the TGI in test [7], in test [8], in [9], in test [10], in test [11] and in [12] was over 100 µM each time. The TGI in test [13], in test [14], in test [15], in test [16], in test [17] and in test [18] was over 100 µM throughout. The TGI in test [19] and in test [20] was over 100 µM in each case.
